# Legend:
# [1] = system: neonatal rat cardiomyocytes (NRC); experiment: Immunofluorescence of α-actinin: sarcomere structures (cardiac hypertrophy state) in drug-treated NRC; assay type: cell-based
# Experimental: (§1) NRC prepared by a method similar to the method as described in (1) of Experiment 1 was moved to a glass culture plate (35 mm diameter) coated with poly-L-lysine, and was cultured over night (5% CO2 concentration, 37° C.) in DMEM without blood serum (manufactured by Nacalai Tesque). TPA was added to this to make a final concentration of 20 nM, and this was cultured a further 18 hours (5% CO2 concentration, 37° C.) (approximately 1×10^3 cells). After culturing, the cells obtained were rinsed 2 times with PBS, fixed by treating with 4 w/v % paraformaldehide for 30 minutes at room temperature, treated by soaking in PBS containing 0.25 v/v % Triton X-100 for 30 minutes at 4° C., and then incubated in blocking buffer solution (PBS containing 3 w/v % BSA, 2 v/v % FBS, 1 v/v % normal goat blood serum, and 0.03 v/v % Triton X-100).
# (§2) This was rinsed 2 times in PBS, moved into PBS containing 0.3 v/v % Cy3-labeled anti-mouse IgG antibody, and 0.3 v/v % Cy2-labeled anti-rabbit IgG antibody (second antibody) (both manufactured by Amersham Pharmacia), and incubated for 1 hour at room temperature. The fluorescent signals of the cells were observed by a confocal laser scanning microscope LSM5 Pascal (manufactured by Carl Zeiss Inc.). Untreated NRC (None), which was not treated with TPA, was labeled with antibodies in the same manner as a contrast, and the results of observing the cell luminescence signals by confocal laser microscope (LSM5 Pascal) are indicated in FIG. 3B.
# (§3) Specifically, NRC prepared by the same method as described above in (1) of Experiment 1 was moved to a glass culture plate (35 mm diameter) coated with poly-L-lysin, and was cultured over night (5% CO2 concentration, 37° C.) in DMEM without blood serum (manufactured by Nacalai Tesque). Five samples of the culture cells in question were used and added respectively to (1) 100 μM (final concentration, same hereinafter) NE (containing 2 μM propranol), (2) 100 μM AngII, (3) 20 nM LIF, (4) 100 μM NE (containing 2 μM propranol)+400 nM GF109203X (concretely, treated for 30 minutes by adding GF109203X, and then NE was added), (5) 20 nM LIF+400 nM GF109203X (concretely, treated for 30 minutes by adding GF109203X, and then LIF was added), and these were cultured a further 38 hours (5% CO2 concentration, 37° C.) (approximately 1×10^3 cells).
# (§4) After culturing, the cells were rinsed 2 times with PBS, fixed by treating with 4 w/v % paraformaldehide for 30 minutes at room temperature, treated by soaking in PBS containing 0.25 v/v % Triton X-100 for 30 minutes at 4° C., and then incubated in blocking buffer solution (PBS containing 3 w/v % BSA, 2 v/v % FBS, 1 v/v % normal goat blood serum, and 0.03 v/v % Triton X-100). […] This was rinsed 2 times in PBS, moved into PBS containing 0.3 v/v % Cy3-labeled anti-mouse IgG antibody, and 0.3 v/v % Cy2-labeled anti-rabbit IgG antibody (second antibody) (both manufactured by Amersham Pharmacia), and incubated for 1 hour at room temperature. The fluorescent signals of the cells were observed by a confocal laser scanning microscope LSM5 Pascal (manufactured by Carl Zeiss Ltd.).
# [2] = system: fully active PKD1 (phosphorylated PKD1); experiment: Immunofluorescence: intracellular distribution of fully active PKD1 in drug-treated NRC; assay type: cell-based, rat; settings: for full activation (phosphorylation) of PKD1 and movement to sarcomere Z-discs: 100 μM NE (containing 2 μM propranol), 100 μM AngII or 20 nM LIF
# Experimental: as §1, §2, §3, §4
# [3] = system: PKD1; experiment: Immunoprecipitation kinase assay with Syntide-2 on PKD1 from drug-treated NRC; assay type: cell-based, rat; settings: for phosphorylation activity of PKD1 (Syntide-2) relative to untreated NRC: NRC treated 20 minutes, 100 nM TPA, 100 μM NE (containing 2 μM propranol) or 20 nM LIF, n=9
# Experimental: The ability of PKD1 to phosphorylate Syntide-2 (APLARTLSVAGLPGKK), which is a selective substance for PKD1, can be used as an index to assess PKD1 activity (Valverde, A. M., et al., Proc. Natl. Acad. Sci. USA, 91, 1994, p. 8572-8576).
# Concretely, immunoprecipitation kinase assays using Syntide-2 as a substrate were conducted on the following NRC samples: NRC samples with cardiac hypertrophy induced by treating for 20 minutes respectively with (1) 100 nM TPA, (2) 100 μM NE, and (3) 20 nM LIF, and NRC samples treated for 20 minutes respectively with (4) 400 nM GF109203X (PKC inhibitor), (5) 20 nM TPA+400 nM GF109203X, (6) 100 μM NE+400 nM GF109203X, and (7) 20 nM LIF+400 nM GF109203X. The phosphorylation activity of PKD1 present in the various NRC samples was measured. In addition, as a control, the phosphorylation activity of PKD1 present in NRC that was not treated with anything (untreated NRC) was described and measured in the same way.
# NRC prepared by the same method as described in (1) of Experiment 1 was cultured over night (5% CO2 concentration, 37° C.) in DMEM without blood serum (manufactured by Nacalai Tesque). To the cultured cells, (1) 100 nM TPA, (2) 100 μM NE (containing 2 μM propranol), (3) 20 nM LIF, (4) 400 nM GF109203X (PKC inhibitor), (5) 20 nM TPA+400 nM GF109203X, (6) 100 μM NE+400 nM GF109203X, and (7) 20 nM LIF+400 nM GF109203X were added respectively, and treated for 20 minutes. The cells obtained were treated with Lysis buffer solution A, and incubated for 60 minutes on ice together with anti-fully active PKD1 polyclonal antibody. This was treated with protein G Sepharose 4B, and protein bound to the resin (Protein G Sepharose 4B bound PKD1-anti-PKD1 antibody complex) was recovered. The PKD1 immunoprecipitate was rinsed 1 time in Lysis buffer solution A, and further rinsed 2 times with Lysis buffer solution A not containing NaF.
# The PKD1 was eluted from PKD1 immunoprecipitate obtained by incubating in Lysis buffer solution A not containing NaF together with 100 μL of 0.5 mg/mL immunizing peptide. The immunizing peptide is an antigen peptide used in order to immunize test animals to create anti-fully active PKD1 polyconal antibody. When incubating this peptide with protein G Sepharose 4B bound PKD1-anti-PKD1 antibody complex, the aforementioned antigen peptide and the anti-PKD1 antibody bond, and as a result, PKD1 can be freed and obtained.
# The eluted PKD1 (10 μL) was incubated for 5 minutes at 30° C. together with assay mixed solution (15 μL Tris/MgCl2 (100 mM Tris, 100 mM MgCl2), 5 μL ATP (800 μM), 0.2 μL ^32γ-ATP, and 40 μg Syntide-2). Next, the PKD1 phosphorylation activity was measured by liquid scintillation counter (n=9).
# [4] = system: fully active PKD1 (phosphorylated PKD1); experiment: Immunofluorescence: intracellular distribution of fully active PKD1 in drug-treated NRC; assay type: cell-based, rat; settings: cardiomyocytes in which EGF was allowed to act
# [5] = system: PKCε and PKD1; experiment: Immunoprecipitation assay and Western blotting for interaction of PKCε and PKD1 in NE-treated NRC; assay type: cell-based, rat; settings: 100 μM NE (containing 2 μM propranol), versus NRC not treated with NE
# Experimental: Primary NRC in culture prepared according to the method described in Experiment 1 (1) was treated with 100 μM NE (containing 2 μM propranol) in the same manner as in Experiment 3; the NE treated NRC in question was treated with Lysis buffer solution A; and 1 mL of cell extract (cell lysate) was obtained. […] of the cell extract was incubated for 60 minutes on ice together with anti-PKD1/2 monoclonal antibody; and this was then treated with protein G Sepharose 4B, and protein bound to the resin in question (anti-PKD1 antibody immunoprecipitate sample) was recovered. As indicated in experiment 1, no PKD2 was present in the NRC. Using anti-PKDε monoclonal antibody made in the same manner, anti-PKDε antibody immunoprecipitate sample was collected. As a control, 1 mL cell extract (cell lysate) of untreated NRC was obtained in the same way, and anti-PKDε antibody immunoprecipitate sample and anti-PKD1 antibody immunoprecipitate sample were prepared.
# Next, Western blotting was conducted on the anti-PKCε antibody immunoprecipitate samples and the cell extract (cell lysate) obtained for the various NRC by using anti-PKD1/2 monoclonal antibody as the first antibody, and anti-mouse or anti-rabbit IgG bound with horseradish derived peroxidase (manufactured by Amersham Pharmacia) as the second antibody. […]
# [6] = system: PKD1; experiment: Western blotting of cytoplasm and cell membrane fractions of TPA-treated NRC; assay type: cell-based, rat; settings: 100 nM TPA, 20 minutes, versus untreated
# Experimental: The NRC prepared above was moved to non-serum DMEM (manufactured by Nacalai Tesque), and cultured overnight (5% CO2 concentration, 37° C.). Then, TPA was added to the culture to make a final concentration of 100 nM, and incubated for 20 minutes. Next, the cardiomyocytes were recovered and rinsed in PBS, subjected to bacteriolysis by treating with Lysis buffer solution (having the same composition as Lysis buffer solution A except that the Triton X-100 was 0.1%), centrifuged (15000 rpm, approximately 10 minutes), and fractioned into supernatant (cytoplasm fraction) and precipitate. The precipitate was further dissolved in Lysis buffer solution A. This was lightly separated by centrifuge, and the supernatant obtained was taken as the cell membrane fraction. As a control, NRC that was not treated with TPA was subjected to bacteriolysis, and the cytoplasm and cell membrane fractions were separated in the same manner as above (untreated substance). […]
# Next, anti-mouse or anti-rabbit IgG bound with horseradish derived peroxidase (manufactured by Amersham Pharmacia) was used as the second antibody reagent, so that it is possible to observe the blotting results with chemical luminescence on X-ray film.
# [7] = 38 hours, 100 μM NE (containing 2 μM propranol), 100 μM AngII or 20 nM LIF
# [8] = 400 nM GF109203X for 30 minutes, then 100 μM NE (containing 2 μM propranol), 38 hours
compound,measurement,setting,value
"Angiotensin II (DRVYIHPF; Angiotensin-2; UniProt P01019 25-32, looked up) [AngII, cardiac hypertrophy inducer]","induction of cardiac hypertrophy (formation of sarcomere structures, visualization of Z-discs)",[1]; [7],induced cardiac hypertrophy
same,full activation (phosphorylation) of PKD1 and movement to sarcomere Z-discs,[2]; 38 hours,PKD1 was fully activated (phosphorylated)
Leukemia inhibitory factor [LIF],phosphorylation activity of PKD1 (Syntide-2) relative to untreated NRC,[3],hardly different from that of untreated NRC
same,"induction of cardiac hypertrophy (formation of sarcomere structures, visualization of Z-discs)",[1]; [7],inducing cardiac hypertrophy
same,full activation (phosphorylation) of PKD1 and movement to sarcomere Z-discs,[2]; 38 hours,no full activation (phosphorylation) of PKD1 and no movement of PKD1 to the vicinity of the sarcomere Z-discs
Epidermal growth factor [EGF],full activation of PKD1 and movement to sarcomere Z-discs,[4],also observed
"NC[C@H](O)c1ccc(O)c(O)c1 [NE, Norepinephrine]",phosphorylation activity of PKD1 (Syntide-2) relative to untreated NRC,[3],notably higher phosphorylation activity
same,"induction of cardiac hypertrophy (formation of sarcomere structures, visualization of Z-discs)",[1]; [7],induced cardiac hypertrophy
same,formation of complex of PKCε and PKD1,[5],complex of PKCε and PKD1 were formed
same,full activation (phosphorylation) of PKD1 and movement to sarcomere Z-discs,[2]; 38 hours,PKD1 was fully activated (phosphorylated)
CN(C)CCCn1cc(C2=C(c3c[nH]c4ccccc34)C(=O)NC2=O)c2ccccc21 [GF109203X],intrinsic PKD1 activity with TPA plus PKC inhibitor,"[3]; NRC, 20 minutes, 20 nM TPA+400 nM GF109203X",suppressed to the same level as that of the negative control
same,intrinsic PKD1 activity with NE plus PKC inhibitor,"[3]; NRC, 20 minutes, 100 μM NE+400 nM GF109203X",suppressed to the same level as that of the negative control
same,effect on LIF-induced cardiac hypertrophy,"[1]; 400 nM GF109203X for 30 minutes, then 20 nM LIF, 38 hours",a cardiac hypertrophy state was revealed
same,effect on NE-induced cardiac hypertrophy,[1]; [8],no cardiac hypertrophy is generated
same,effect on NE-induced full activation of PKD1 and movement to sarcomere Z-discs,[2]; [8],no fully activated PKD1 (phosphorylation) and no movement to sarcomere Z-discs were observed
"CCCCCCCCCCCCCC(=O)O[C@@H]1[C@@H](C)[C@@]2(O)[C@@H](C=C(CO)C[C@]3(O)C(=O)C(C)=C[C@@H]23)[C@H]2C(C)(C)[C@]12OC(C)=O [TPA, 12-0-tetradecanoylphorbol 13-acetate]",phosphorylation activity of PKD1 (Syntide-2) relative to untreated NRC,[3],notably higher phosphorylation activity
same,fully active PKD1 (phosphorylated PKD1) in cytoplasm and membrane fractions,[6],present in large amounts in the membrane fraction
same,"induction of cardiac hypertrophy (formation of sarcomere structures, visualization of Z-discs)","[1]; 20 nM TPA, 18 hours",cardiac hypertrophy was induced
same,activation of PKD1 and localization of fully active PKD1,"[2]; 20 nM TPA, 18 hours",the fully activated PKD1 moves to the sarcomere Z-disc region

# Source: patent US20070135365A1, “Pharmaceutical composition for preventing or remedying cardiac hypertrophy and cardiovascular disease caused thereby” (priority 2003, published 2007)
